Consider 29 molecules from patent US8822691B2, “Pesticidal carboxamides” (Bayer CropScience AG, priority 2009, dated 2014).

What all share (format): in vivo
In data set [1] the test system is Spodoptera litura. The data set is described as follows: Test against tobacco cutworm (Spodoptera litura) larvae, leaf dip. To be noted: active compound concentration of 100 ppm, third instar larvae on sweet potato leaves, after 7 days; for pest or weed control at 100 ppm: foliar, 168 h, read-out: insecticidal activity. As for the experimental part:
(§1) Unless not mentioned otherwise, the test solutions were prepared as follows:
(§2) Containing as solvent: Dimethylformamide, 3 parts by weight; and as emulsifier: Polyoxyethylene alkyl phenyl ether, 1 part by weight
(§3) To prepare the test solution, 1 part by weight of an active compound is mixed with the above-mentioned amount of solvent containing the above-mentioned amount of emulsifier, and the mixture is diluted with water to the desired concentration.
Leaves of sweet potato were immersed in the test solution at the appropriate concentration, and the leaves were dried in air. The leaves were then placed in a petri dish having a diameter of 9 cm, and ten Spodoptera litura at third instar larvae were released therein. The petri dishes were placed in a temperature-controlled chamber at 25° C. After 2 days and 4 days more sweet potato leaves were added. After 7 days, the number of dead larvae was counted to calculate the insecticidal activity. An insecticidal activity of 100% means that all larvae were killed, whereas an insecticidal activity of 0% means that no larva was killed. In the current test, the results of two petri dishes for each treatment were averaged.

Data set [2] deals with Tetranychus urticae. The data set is described as follows: Test against two-spotted spider mite (Tetranychus urticae), spray. To be noted: for pest or weed control at 500 ppm: Tetranychus urticae, 168 h, read-out: acaricidal activity. As for the experimental part:
as §1, §2, §3
50 to 100 adult mites of Tetranychus urticae were inoculated to leaves of kidney bean at two-leaf stage planted in a pot of 6 cm in diameter. After one day, test solution at the appropriate concentration was sprayed thereon in a sufficient amount using a spray gun. After the spraying, the plant pot was placed inside a greenhouse, and after 7 days, the acaricidal activity was calculated. An acaricidal activity of 100% means that all mites were killed, whereas an acaricidal activity of 0% means that no mite was killed.

In data set [3] the test system is Aulacophora femoralis. In words: Test against cucurbit leaf beetle (Aulacophora femoralis), leaf dip. The settings on record: active compound concentration of 500 ppm, second instar larvae on cucumber leaves, after 7 days; for pest or weed control at 500 ppm: Aulacophora, foliar, 168 h, read-out: insecticidal activity. As for the experimental part:
as §1, §2, §3
Leaves of cucumber were immersed in the test solution at the appropriate concentration, and the leaves were dried in air. The leaves were then put in a plastic cup containing sterilized black soil and five Aulacophora femoralis at second instar larvae were released in the cup. The cups were placed in a temperature-controlled chamber at 25° C. After 7 days, the number of dead larvae was counted, and thus the insecticidal activity was calculated. An insecticidal activity of 100% means that all larvae were killed, whereas an insecticidal activity of 0% means that no larva was killed.

In data set [4] the test system is Ctenocephalides felis. In words: Ctenocephalides felis-test (CTECFE). To be noted: application rate of 100 ppm in cattle blood; adult unfed fleas; after 2 days. As for the experimental part:
Solvent: dimethyl sulfoxide
To produce a suitable preparation of active compound, 10 mg of active compound are dissolved in 0.5 ml solvent, and the concentrate is diluted with cattle blood to the desired concentration. Approximately 20 adult unfed (Ctenocepahlides felis) are placed in flea chambers. The blood chamber, sealed with parafilm on the bottom, are filled with cattle blood supplied with compound solution and placed on top of the flea chamber, so that the fleas are able to suck the blood. The blood chamber is heated to 37° C. whereas the flea chamber is kept at room temperature. After 2 days mortality in % is determined. 100% means that all the fleas have been killed; 0% means that none of the fleas have been killed.

Where [5] appears, read: active compound concentration of 500 ppm, adult mites on kidney bean, after 7 days.

Read-outs that look alike come from different tables or passages of the source.

Consider `N#Cc1ccc2cc(C(=O)Nc3c(Cl)cc(C(F)(C(F)(F)F)C(F)(F)F)cc3OC(F)F)ccc2n1` [Compound No. 2-231, N-[2-chloro-6-(difluoromethoxy)-4-(1,1,1,2,3,3,3-heptafluoropropan-2-yl)phenyl]-2-cyanoquinoline-6-carboxamide], for which, in data set [1], the pest or weed control at 100 ppm was determined as 100%. In addition, the pest or weed control at 500 ppm in data set [2] (setting [5]) and in data set [3] was 100% in each case.
`Cc1cc(C(F)(C(F)(F)F)C(F)(F)C(F)(F)F)cc(C)c1NC(=O)c1ccc2nc(C#N)ccc2c1` (stereo not drawn) [2-87]: the insecticidal activity in data set [1] and in data set [3] was 100% in each case. The molecule further returned an acaricidal activity in data set [2] (setting [5]) of 100%.
Consider `CCc1cc(C2(F)C(F)(F)C(F)(F)C(F)(F)C(F)(F)C2(F)F)cc(C)c1NC(=O)c1ccc2nc(C#N)ccc2c1` [2-130], for which the insecticidal activity in data set [1] and in data set [3] was 100% in each case. The acaricidal activity in data set [2] (setting [5]) turned out to be 100%.
With `CCc1cc(C(F)(C(F)(F)F)C(F)(F)F)cc(C)c1NC(=O)c1ccc2nc(C#N)ccc2c1` [2-31], the insecticidal activity in data set [1] and in data set [3] was 100% in each case. In addition, in data set [2] (setting [5]), the acaricidal activity is 100%.
As to `N#Cc1ccc2cc(C(=O)Nc3c(Br)cc(C4(F)C(F)(F)C(F)(F)C(F)(F)C(F)(F)C4(F)F)cc3Br)ccc2n1` [2-133], the insecticidal activity in data set [1] and in data set [3] was 100% in each case. Moreover, the acaricidal activity in data set [2] (setting [5]) was 100%. The “activity (mortality)” value in data set [4] came out at 90%.
As to `Cc1cc(C(F)(C(F)(F)F)C(F)(F)F)cc(Br)c1NC(=O)c1ccc2nc(C#N)ccc2c1` [2-40], the insecticidal activity in data set [1] and in data set [3] was 100% in each case. Further, the acaricidal activity in data set [2] (setting [5]) stood at 100%. The “activity (mortality)” value in data set [4] came to 95%.
Consider `CCc1cc(C(F)(C(F)(F)F)C(F)(F)Br)cc(C)c1NC(=O)c1ccc2nc(C#N)ccc2c1` (stereo not drawn) [2-194], for which the insecticidal activity in data set [1] and in data set [3] was 100% in each case. The same molecule returned an acaricidal activity in data set [2] (setting [5]) of 100%.
For the molecule `CCc1cc(C(n2cc(Cl)cn2)(C(F)(F)F)C(F)(F)F)cc(C)c1NC(=O)c1ccc2nc(C#N)ccc2c1` [2-83], the insecticidal activity in data set [1] and in data set [3] was 100% throughout. This molecule registered an acaricidal activity in data set [2] (setting [5]) of 100%.
Take `N#Cc1ccc2cc(C(=O)Nc3c(Br)cc(C(F)(C(F)(F)F)C(F)(F)Br)cc3Br)ccc2n1` (stereo not drawn) [2-197]: the insecticidal activity in data set [1] and in data set [3] was 100% throughout. For the same molecule, the acaricidal activity in data set [2] (setting [5]) is 100%.
Turning to `N#Cc1ccc2cc(C(=O)Nc3c(Cl)cc(C(F)(C(F)(F)F)C(F)(F)C(F)(F)F)cc3OC(F)F)ccc2n1` (stereo not drawn) [2-274], the insecticidal activity in data set [1] and in data set [3] was 100% each time. Besides, in data set [2] (setting [5]), the acaricidal activity was found to be 100%.
On to `N#Cc1ccc2cc(C(=O)Nc3c(Br)cc(C(F)(C(F)(F)F)C(F)(F)C(F)(F)F)cc3Br)ccc2n1` (stereo not drawn) [2-110], for which the insecticidal activity in data set [1] and in data set [3] was 100% in each case. This molecule also displayed an acaricidal activity in data set [2] (setting [5]) of 100%.
Consider `N#Cc1ccc2cc(C(=O)Nc3c(Br)cc(C(F)(F)C(F)(F)F)cc3OC(F)F)ccc2n1` [2-221], for which the insecticidal activity in data set [1] and in data set [3] was 100% each time. In addition, the acaricidal activity in data set [2] (setting [5]) amounted to 100%.
Turning to `N#Cc1ccc2cc(C(=O)Nc3c(Br)cc(C(F)(C(F)(F)F)C(F)(F)F)cc3Br)ccc2n1` [2-64], the insecticidal activity in data set [1] and in data set [3] was 100% in each case. In data set [2] (setting [5]), this molecule gave an acaricidal activity of 100%.
Take `N#Cc1ccc2cc(C(=O)Nc3c(Br)cc(C(F)(C(F)(F)F)C(F)(F)F)cc3SC(F)(F)F)ccc2n1` [2-66]: the insecticidal activity in data set [1] and in data set [3] was 100% in each case. In addition, in data set [2] (setting [5]), the acaricidal activity amounted to 100%.
Regarding `CCc1cc(C(F)(C(F)(F)F)C(F)(F)C(F)(F)F)cc(C)c1NC(=O)c1ccc2nc(C#N)sc2c1` (stereo not drawn) [Compound No. 4-34, 2-cyano-N-[2-ethyl-6-methyl-4-(1,1,1,2,3,3,4,4,4-nonafluorobutan-2-yl)phenyl]-1,3-benzothiazole-6-carboxamide], the pest or weed control at 100 ppm in data set [1] is 100%. Moreover, the pest or weed control at 500 ppm in data set [2] (setting [5]) was 100%.
`Cc1cc(C(F)(C(F)(F)F)C(F)(F)F)cc(OC(F)F)c1NC(=O)c1ccc2nc(C#N)ccc2c1` [2-261]: the insecticidal activity in data set [1] and in data set [3] was 100% each time. The molecule further had an acaricidal activity in data set [2] (setting [5]) of 100%.
Consider `CCc1cc(C(F)(C(F)(F)F)C(F)(F)Br)cc(C)c1NC(=O)c1ccc2ncccc2c1` (stereo not drawn) [2-192], for which, in data set [2] (setting [5]), the acaricidal activity came to 100%. In data set [3], the insecticidal activity came to 100%.
As for `CCc1cc(C(F)(C(F)(F)F)C(F)(F)C(F)(F)F)cc(C)c1NC(=O)c1ccc2ncsc2c1` (stereo not drawn) [4-33], the insecticidal activity in data set [1] and in data set [3] was 100% throughout. The molecule also had an acaricidal activity in data set [2] (setting [5]) of 100%.
As to `O=C(Nc1c(I)cc(C(F)(C(F)(F)F)C(F)(F)Br)cc1I)c1ccc2c(ccc[n+]2[O-])c1` (stereo not drawn) [2-199], in data set [2] (setting [5]), the acaricidal activity is 100%. Further, the insecticidal activity in data set [3] stood at 100%.
In turn, `O=C(Nc1c(I)cc(C(F)(C(F)(F)F)C(F)(F)C(F)(F)F)cc1SC(F)(F)F)c1ccc2c(ccc[n+]2[O-])c1` (stereo not drawn) [2-187] came in with an acaricidal activity in data set [2] (setting [5]) of 100%.
With `N#Cc1ccc2cc(C(=O)Nc3c(Br)cc(C(F)(C(F)(F)F)C(F)(F)F)cc3C(F)(F)F)ccc2n1` [2-249], the insecticidal activity in data set [1] and in data set [3] was 100% in each case. This molecule also returned an acaricidal activity in data set [2] (setting [5]) of 100%.
In data set [2] (setting [5]), `CCOC(c1cc(C)c(NC(=O)c2ccc3ncccc3c2)c(CC)c1)(C(F)(F)F)C(F)(F)F` [2-72] had an acaricidal activity of 100%.
For the molecule `O=C(Nc1c(Br)cc(C(F)(C(F)(F)F)C(F)(F)C(F)(F)F)cc1SC(F)(F)F)c1ccc2c(ccc[n+]2[O-])c1` (stereo not drawn) [2-184], the acaricidal activity in data set [2] (setting [5]) is listed as 100%.
For `CCc1cc(C(F)(C(F)(F)F)C(F)(F)F)cc(CC)c1NC(=O)c1ccc2nc(C#N)ccc2c1` [2-46], the insecticidal activity in data set [1] and in data set [3] was 100% throughout. Further, the acaricidal activity in data set [2] (setting [5]) was determined as 100%.
For `CCc1cc(C(F)(C(F)(F)F)C(F)(F)C(F)(F)F)cc(C)c1NC(=O)c1ccc2nc(C#N)cc(Br)c2c1` (stereo not drawn) [Compound No. 2-269, 4-bromo-2-cyano-N-[2-ethyl-6-methyl-4-(1,1,1,2,3,3,4,4,4-nonafluorobutan-2-yl)phenyl]quinoline-6-carboxamide], the pest or weed control at 100 ppm in data set [1] is 100%. Moreover, the pest or weed control at 500 ppm in data set [2] (setting [5]) and in data set [3] was 100% throughout.
On to `CCc1cc(C(F)(C(F)(F)F)C(F)(F)C(F)(F)F)cc(C)c1NC(=O)c1ccc2ncccc2c1` (stereo not drawn) [2-88], for which the insecticidal activity in data set [1] and in data set [3] was 100% each time. In data set [4], the “activity (mortality)” value was 95%.
As to `CCc1cc(C(F)(C(F)(F)F)C(F)(F)F)cc(C)c1NC(=O)c1ccc2nc(Cl)ccc2c1` [2-29], the insecticidal activity in data set [1] and in data set [3] was 100% throughout. Besides, the acaricidal activity in data set [2] (setting [5]) was 100%.
In the case of `CCc1cc(C(F)(C(F)(F)F)C(F)(F)F)cc(C)c1NC(=O)c1ccc2cc(Br)ccc2c1` [Compound No. 1-3, 6-bromo-N-[2-ethyl-4-(1,1,1,2,3,3,3-heptafluoropropan-2-yl-2-yl)-6-methylphenyl]-2-naphthamide], the pest or weed control at 500 ppm in data set [2] (in Phaseolus vulgaris) came to 100%.
With `Cc1cc(C(F)(C(F)(F)F)C(F)(F)Br)cc(C)c1NC(=O)c1ccc2nc(C#N)ccc2c1` (stereo not drawn) [2-191], the insecticidal activity in data set [1] and in data set [3] was 100% each time. For the same molecule, the acaricidal activity in data set [2] (setting [5]) was determined as 100%.
